Consider 93 molecules from PubChem BioAssay AID463074 (Broad Institute, 2010).

Usually AC50 stands for the concentration at which the activity in the assay is half-maximal.

The source made the active and inactive calls.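 Rule for the calls: active = AC50 no more than tenfold above the top dose tested, or full inhibition at every dose with a flat fit (cut at about 19 µM in these data); inconclusive = flat curve fit with inhibition between 30% and 70%, or poor fit; inactive = AC50 more than tenfold above the top dose tested.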 Where only a bound is given, the exact number is not on record here.

This test has as its system HMLE_sh_eGFP viability, CellTiter-Glo luminescence, 72 h. Briefly: viability loss of HMLE_sh_eGFP cells – cell-based, luminescence, counter-screen for HMLE_sh_ECad selective toxicity project, dose response (AID 463074).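 Note: counterscreen control line to flag general toxicity for the HMLE_sh_ECad screen; potency for loss of viability as luminescence drops below DMSO wells.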 On the technique in general: Counterscreens check selectivity or assay interference.
For `CCc1ccc2c(c1)C1(C(=O)N2)N2CCCC2C(C(=O)c2ccc3ccccc3c2)C12C(=O)Nc1ccccc12` (stereo not drawn), the AC50 is 3.69 µM. Under `O=C(Nc1ccccc1)Nc1cc(Cl)cc(Cl)c1` stands 5.13 µM; under `CC(C)(C)c1cc(-c2nc(N)nc(N)n2)c(O)c(C(C)(C)C)c1`, 3.57 µM. Under `CCc1ccc(CCC(=O)Nc2ncc(Cc3ccccc3Cl)s2)o1` stands 0.322 µM; under `Cc1ccn2c(NC3CCCCC3)c(-c3cccc(-c4cccc(Cl)c4)c3)nc2c1`, 6.68 µM. The value for `O=[N+]([O-])/C=C/c1cn(Cc2ccc(F)cc2)c2ccccc12` was 6.86 µM; that for `CC(C)c1ccc(/C=N/NC(=O)c2ccccn2)cc1` was > 19.5 µM (inactive). Turning to `O/N=C/c1cc(Cl)ccc1OCc1ccccc1Cl`, the AC50 is 6.08 µM. As to `CC(C)(C)c1ccc(/C=C/C(=O)c2ccc(NC3=NCCCS3)cc2)cc1`, the AC50 is 6.11 µM.

As for `CC(/C=C1\SC(=O)N(CC(=O)Nc2cccc(O)c2)C1=O)=C\c1ccccc1`, the AC50 was 13.6 µM. Under `CCCCCCSc1cc(-c2nc3cnccn3c2NCCCC)ccc1OC` stands 6.71 µM.

Take `CC12CCC(C/C1=N\N=C1\NC(=O)/C(=C\c3cccc(Br)c3)S1)C2(C)C` (stereo not drawn): the concentration at half-maximal activity (AC50) is 2.49 µM. The value for `Cn1cncc1C#Cc1c(-c2ccsc2)sc2ccccc12` was 7.26 µM. With `O=c1cc(-c2ccc(O)cc2)oc2ccc3ccccc3c12`, the half-maximal activity concentration (AC50) is 7.19 µM.

`CCN(CC)CCSc1nnc2c3ccccc3n(Cc3ccccc3)c2n1`: the half-maximal activity concentration (AC50) is 2.47 µM. Under `CCC1=NN2C(=N)/C(=C/c3c(C)nn(-c4ccccc4)c3Cl)C(=O)N=C2S1` stands > 19.5 µM (inactive); under `O=C1C=CC(=O)N1c1ccc(OC(F)F)cc1`, 11.9 µM; under `Nc1c(S(=O)(=O)c2cccs2)c2nc3ccccc3nc2n1/N=C/c1cccc(O)c1`, 3.87 µM. The value for `COC(=O)[C@@H]1C[C@]2(OC(=O)c3ccccc3)C=CC(=O)C[C@@H]2N1C(=O)OCc1ccccc1` was 7.87 µM.

For `Cc1cccc(NC2=C/C(=N/S(=O)(=O)c3cccs3)c3ccccc3C2=O)c1`, the half-maximal activity concentration (AC50) was 0.934 µM. Under `Oc1ccc(/C=C/c2nc(-c3ccccc3O)n(-c3ccccc3)n2)cc1` stands 6.7 µM.

Turning to `O=C1NN(c2cccc(Br)c2)C(=O)/C1=C\c1ccccc1`, the AC50 is 6.97 µM.

As for `CC(=O)Oc1ccc(-c2csc(Nc3cccc(C)n3)n2)cc1`, the half-maximal activity concentration (AC50) was 8.79 µM.

Take `O=C(NC(CSCc1ccccc1)C(=O)N/N=C/c1ccc(O)cc1O)c1ccc([N+](=O)[O-])cc1` (stereo not drawn): the AC50 was 2.14 µM.

Consider `CCc1cc2cccc(C)c2nc1SCC(=O)c1ccc(NC(C)=O)cc1`, for which the AC50 was 4.62 µM.

With `COc1cccc(-c2sc3ccc(OC)cc3c2C#CCC(C)O)c1` (stereo not drawn), the concentration at half-maximal activity (AC50) was 5.4 µM.

Regarding `O=C(Nc1nccs1)c1ccc(COc2ccccc2Br)o1`, the half-maximal activity concentration (AC50) is 4.84 µM. The value for `COc1cc(/C=C/c2noc(-c3ccccc3O)n2)ccc1OC(C)=O` was > 19.5 µM (inactive). Under `Cc1nn(-c2ccccc2)c(C)c1/C=N/n1c(-c2ccc(C(C)(C)C)cc2)n[nH]c1=S` stands 6.74 µM. The value for `COc1ccc(C2c3ccc4ccccc4c3Oc3ncn(Cc4ccco4)c(=N)c32)cc1OC` (stereo not drawn) was 7.58 µM; that for `O=C(NCc1ccc2c(c1)OCO2)c1nc(S(=O)(=O)Cc2ccccc2F)ncc1Cl` was 6.81 µM. Consider `COc1ccccc1NC(=O)c1c(Nc2ccccc2F)sc(C(=O)Nc2cccc(Cl)c2)c1N`, for which the AC50 was 2.95 µM. Consider `CCn1c(N2CCN(S(=O)(=O)c3ccc(F)cc3)CC2)nc2ccccc21`, for which the AC50 is > 19.5 µM (inactive). As for `Cc1cc(C)c(O)c(-c2n[nH]c3c2C(c2cccc(O)c2)N(Cc2ccco2)C3=O)c1` (stereo not drawn), the AC50 was 6.73 µM. The value for `COc1cc(/C=C/c2[nH]c(=O)[nH]c(=O)c2[N+](=O)[O-])ccc1OCCC(C)C` was 7.14 µM; that for `Cn1c(=O)n(Cc2ccc(F)cc2)c(=O)c2c1nc1n2CCCN1C1CCCCC1` was 4.43 µM; that for `COc1ccc(OC)c(NC(=O)NNC(=O)COc2ccc(-c3ccccc3)cc2)c1` was > 19.5 µM (inactive).

Consider `COC(=O)C1=C(C)N(Cc2ccccc2)C(=NCc2ccccc2)N[C@H]1c1cccc(C(F)(F)F)c1`, for which the concentration at half-maximal activity (AC50) was 3.68 µM. Under `O=C(CCOc1ccccc1)N1CCN(c2ccc(O)cc2)CC1` stands 3.25 µM; under `O=C(N/N=C/c1cn(-c2cccs2)nc1-c1ccccc1)c1ccc(O)cc1`, 7.76 µM.

As to `O=[N+]([O-])c1cc(C(F)(F)F)ccc1NCCc1c[nH]c2ccccc12`, the AC50 is 4.16 µM. The value for `CC(=O)Oc1ccc(C#C/C=C2\c3ccccc3C(=O)N2c2ccccc2)cc1` was 4.92 µM; that for `CCOC(=O)c1cccc(C2=CC(=O)C[C@H](c3ccc(Cl)cc3)C2)c1` was 2.82 µM.

For the molecule `O=C(NCCc1c[nH]c2ccccc12)C1CCC(Cn2c(=S)[nH]c3ccccc3c2=O)CC1` (stereo not drawn), the AC50 is 0.707 µM.

`C/C(=N\NC(=O)c1cc(C)nc2ccccc12)c1ccccn1`: the AC50 was 13.1 µM. For `O=[N+]([O-])c1nn(-c2ccc3c(c2)OCCO3)n(O)c1=NCCC1=CCCCC1`, the AC50 was 17.9 µM. Consider `CC1=NN(c2nc(-c3ccc(F)cc3)cs2)C(=O)C1`, for which the AC50 was 13.4 µM.

On to `Cc1cccc(-c2oc3ccccc3c2C#CCCO)c1`, for which the AC50 was 10.1 µM. On to `Cc1cc(=O)[nH]c(N/N=C/c2ccc(-c3ccc(F)cc3)o2)n1`, for which the AC50 was 18.1 µM. The value for `COc1ccc2c(C)nc(Nc3nc(C)c(C)c(=O)[nH]3)nc2c1` was 7.16 µM; that for `CC(C)(C)OC(=O)[C@H](Cc1ccccc1)NC(=O)c1[nH]cnc1C(=O)Nc1ccc(Cl)cc1` was 3.92 µM. The value for `CCOC(=O)CSC1=C(C#N)C(c2sccc2C)CC(=O)N1` (stereo not drawn) was > 19.5 µM (inactive); that for `Cc1ccc(C(C[N+](=O)[O-])n2nc(C)cc2C)cc1` (stereo not drawn) was 6.74 µM.

With `O=C(O)CCCCCN1C(=O)/C(=C\c2cn(-c3ccccc3)nc2-c2cccs2)SC1=S`, the AC50 was 3.5 µM.

As for `O=Nc1c(O)n(Cc2ccc(Cl)c(Cl)c2)c2ccccc12`, the AC50 was 6.85 µM. As for `Cc1cc(C)cc(-n2c(C)cc(/C=C3\C(=N)N4N=C(CC(C)C)SC4=NC3=O)c2C)c1`, the AC50 is 4.82 µM. Consider `O=c1/c(=C\c2cccc(O)c2)sc2nc(-c3ccccc3)c(-c3ccccc3)n12`, for which the half-maximal activity concentration (AC50) was 6.21 µM. The value for `Cc1nc(Nc2nc(CSc3nc4ccccc4[nH]3)cc(=O)[nH]2)nc2ccccc12` was 2.69 µM; that for `CCOC(=O)C(=Cc1ccc(-n2cncn2)cc1)C(=O)OCC` was 6.4 µM.

Take `O=C(/C=C/c1cc2ccccc2o1)c1ccccc1O`: the AC50 was 10.1 µM. The value for `O=S(=O)([N-]c1nc2ccccc2nc1-[n+]1ccc(Cc2ccccc2)cc1)c1ccc(Br)s1` was 6.16 µM; that for `O=C(NC(NC(=S)Nc1ccccc1)C(Cl)(Cl)Cl)c1cccc(Cl)c1` (stereo not drawn) was 5.36 µM.

Consider `C/C(=N\N=C(/N)SC1CC(=O)N(c2ccc(Cl)c(Cl)c2)C1=O)c1cccs1` (stereo not drawn), for which the AC50 is 7.3 µM. The value for `O=C(Nc1ccc2c(c1)CCC2)c1cc(S(=O)(=O)Nc2ccc(F)cc2)c(Cl)cc1Cl` was 5.38 µM; that for `CC/C(=C\C1CCCCC1)C(NP(=O)(c1ccccc1)c1ccccc1)c1ccccc1` (stereo not drawn) was 3.49 µM; that for `CCOC(=O)/C(C#N)=C1\Nc2ccccc2N=C1N(CC(C)C)CC(C)C` was 8.73 µM. Take `COc1cc(CNC2CCCC2)cc(Cl)c1OCc1ccccc1Cl`: the AC50 was 6.95 µM. Consider `Cc1cc(-c2ccccc2)nc2cc(C(=O)N(Cc3ccccc3)Cc3ccccc3)nn12`, for which the AC50 was 10.8 µM. Turning to `O=[N+]([O-])c1ccc(COc2ccc(-c3[nH]ncc3-c3ccc(Cl)cc3)c(O)c2)cc1`, the AC50 is 4.01 µM.

Regarding `O=C(Cn1c2ccccc2c(=O)c2ccccc21)N/N=C/c1ccc(N2CCCC2)c([N+](=O)[O-])c1`, the AC50 is 2.43 µM. Under `CCN(CC)CCNc1ncnc2c1sc1nc(N3CCOCC3)c3c(c12)CC(C)(C)SC3` stands 6.99 µM. Under `Cc1ccc(NNC(=O)C(O)(c2cccc(C(F)(F)F)c2)c2cccc(C(F)(F)F)c2)cc1` stands 3.29 µM; under `CN(C)/C=C(\C=N\OCc1ccc(Cl)cc1Cl)C(=O)Nc1ccc(Cl)c(Cl)c1`, 4.22 µM; under `O=S(=O)(N/N=C1/CC(c2ccccc2)Oc2ccccc21)c1ccc(Br)cc1` (stereo not drawn), 4.21 µM. The value for `NCC(c1ccc(Cl)cc1Cl)c1c[nH]c2ccccc12` (stereo not drawn) was 11.9 µM; that for `CC(=O)Nc1ccc(-c2csc(NC(=O)CCCc3cccs3)n2)cc1` was 0.986 µM; that for `C/C(=N\NC(=S)Nc1ccc(F)cc1)c1ccc2c(c1)OCCO2` was 2.36 µM.

Consider `S=C(Nc1ccccc1)Nc1nc2ccccc2n1CCOc1ccc(Br)cc1`, for which the concentration at half-maximal activity (AC50) was 14 µM. The value for `CCCCN(CCCC)CCC(O)c1cc2c(Cl)cc(Cl)cc2c2cc(C(F)(F)F)ccc12` (stereo not drawn) was 7.54 µM; that for `CCCCc1ccc(NC(=O)Nc2cc(C)nn2C)cc1` was 2.09 µM; that for `COc1cc(/C=C2\C(=O)ON=C2c2ccc(Cl)cc2)ccc1O` was 1.55 µM. As for `CC(/C=N/n1c(C2CCCCC2)n[nH]c1=S)=C\c1ccccc1`, the AC50 was 4.88 µM. The value for `CCNc1nc(Oc2c(Cl)cccc2Cl)cc(C(F)(F)F)n1` was 13.1 µM; that for `CCOC(=O)c1c(C)oc2c1C(=O)c1ccccc1C2=O` was 4.72 µM. In the case of `O=[N+]([O-])c1cc(-c2cnc3ccccc3n2)ccc1Oc1ccc(Cl)cc1`, the AC50 was 3.38 µM. The value for `CCCCCCSc1cccc(-c2nc3ccccn3c2NCc2ccccc2)c1` was 5.27 µM; that for `FC(F)(F)c1cccc(Nc2ncnc3ccccc23)c1` was 1.75 µM; that for `O=C(Nc1ccc(Cl)cc1)Nc1ccccc1Sc1ncc([N+](=O)[O-])s1` was 6.81 µM. Under `CC(C)n1cnc2c(NCc3ccccc3)cc(Cc3ccc(F)cc3)cc21` stands 4.67 µM; under `O=C(Nc1ccc(C(F)(F)F)cc1)c1cccn(Cc2ccc3c(c2)OC(F)(F)O3)c1=O`, 4.91 µM; under `CCCc1cc(SCC(=O)Nc2c(C)n(C)n(-c3ccccc3)c2=O)n2c(nc3ccccc32)c1C#N`, > 19.5 µM (inactive). For `Cn1cccc1/C=C1/C(=O)NC(=S)N(Cc2ccc(F)cc2)C1=O`, the AC50 is 1.7 µM. `CC(C)=CCc1c(O)ccc(C(=O)Cc2ccccc2)c1O`: the AC50 was 4.41 µM.
